The target in this assay is T1, NLRP3 (Homo sapiens, UniProt Q96P20).
T1 construct: purified human GST-NLRP3
Briefly: microscale thermophoresis with purified GST-NLRP3; also biotin-Eri pull-down and ATPase inhibition. The class given is binding. For orientation: In MST a laser heats a spot of the sample, and binding alters the fluorescence response.

T1 sequence (Q96P20 whole entry): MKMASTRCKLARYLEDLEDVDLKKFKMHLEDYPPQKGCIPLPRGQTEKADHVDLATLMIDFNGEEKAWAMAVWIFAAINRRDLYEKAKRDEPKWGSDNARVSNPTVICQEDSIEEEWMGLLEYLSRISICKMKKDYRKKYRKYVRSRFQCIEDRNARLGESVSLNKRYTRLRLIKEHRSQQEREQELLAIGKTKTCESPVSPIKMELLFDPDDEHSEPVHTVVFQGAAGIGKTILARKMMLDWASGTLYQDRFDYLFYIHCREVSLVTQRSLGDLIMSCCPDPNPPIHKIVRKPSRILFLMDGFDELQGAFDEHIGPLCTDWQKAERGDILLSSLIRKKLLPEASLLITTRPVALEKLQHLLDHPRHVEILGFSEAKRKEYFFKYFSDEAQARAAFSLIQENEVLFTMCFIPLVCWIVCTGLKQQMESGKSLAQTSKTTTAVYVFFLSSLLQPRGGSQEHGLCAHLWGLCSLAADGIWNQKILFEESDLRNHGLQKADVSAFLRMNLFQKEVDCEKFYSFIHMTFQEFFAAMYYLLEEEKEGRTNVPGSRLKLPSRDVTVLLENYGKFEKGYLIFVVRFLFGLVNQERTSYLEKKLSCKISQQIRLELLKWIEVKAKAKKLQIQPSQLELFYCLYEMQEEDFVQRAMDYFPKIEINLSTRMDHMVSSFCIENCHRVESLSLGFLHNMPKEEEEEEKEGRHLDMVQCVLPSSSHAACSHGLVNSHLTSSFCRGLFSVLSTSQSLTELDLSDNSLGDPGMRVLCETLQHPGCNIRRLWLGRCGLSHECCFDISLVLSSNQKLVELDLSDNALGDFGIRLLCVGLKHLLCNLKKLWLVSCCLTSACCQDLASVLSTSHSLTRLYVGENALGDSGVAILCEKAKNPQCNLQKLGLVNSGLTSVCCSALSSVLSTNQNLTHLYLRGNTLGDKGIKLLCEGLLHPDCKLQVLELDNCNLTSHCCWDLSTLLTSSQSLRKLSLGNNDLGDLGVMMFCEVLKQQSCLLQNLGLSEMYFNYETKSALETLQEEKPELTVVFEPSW

For `COc1ccc(CCc2cc(OC)c(OC)c(OC)c2)cc1O` [Eri, Erianin], the Kd – broadly, the free concentration of one partner at which half of the binding sites on the other are occupied at equilibrium, for simple one-to-one binding – was roughly 50 nM.

The values are drawn from paper PMC8564113, “Erianin: A Direct NLRP3 Inhibitor With Remarkable Anti-Inflammatory Activity” (Frontiers in Immunology, 2021).
